Assays:
[1] = system: murine leukemia L1210 cells; test: Growth inhibition test on cultured murine leukemia L1210 cells; format: cell-based; settings: 48 hours, 37° C., Trypan blue viability
Procedure, shortened: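 L1210 cells (1×10^5) exposed to graded compound concentrations in RPMI 1640 with 10% fetal calf serum, 37° C, 5% CO2, 48 h. Viability by 0.17% Trypan blue staining, relative to untreated control cells.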

[2] = Test for water solubility; format: physicochemical; settings: 20° C.
Excerpt: 3. Test for water solubility
A standard plot of UV absorbance(220 nm) vs. concentration was made; and employed to determine water-solubility.
The mixture was then passed through a 0.45 micron disposable membrane filter before dilution and UV measurement.

[3] = system: murine leukemia L1210; test: Antitumor activity test on murine leukemia L1210 in vivo; set-up: species or system male BDF1 mice; settings: days 1, 5, 9
Procedure, shortened: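 Intraperitoneal L1210 model: 1×10^6 cells inoculated i.p. into 6-week-old male BDF1 mice (21±3 g) on day 0, seven per group. Compounds in 0.5% CMC given i.p. on days 1, 5 and 9; vehicle-only controls. T/C % from mean survival time of treated over control.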

[4] = Test for nephrotoxicity; format: in vivo, male ICR mice; settings: 150 mg/kg i.p. once
Experimental: 4. Test for nephrotoxicity
The compounds of the present invention were dissolved or suspended in 0.5% CMC solution(in water) and were administered intraperitoneally one time to 8-week-old male ICR mice weighing 30±3 g. Each treatment and control groups consisted of six mice.
The administration amount of the test compound was 1.5 times the optimum dose obtained in Table 2, or more. On days 1, 4 and 8 after administration, their blood was collected under ether anesthesia for measurement of blood urea nitrogen concentration (BUN value) and creatinine concentration.
A pair of kidneys were taken and, after immediate weighing, were stored in a 10% neutral buffered formalin solution. The body weight ratio shown in Table 5 is a ratio of the body weight measured on days 1, 4 and 8 from the administration of the compound to the body weight measured on the administration day.

[5] = system: human cancers; settings: testicular, ovarian, bladder, head and neck cancer; cited from earlier work

## CC1OC2C[NH2+][Pt-2]3([NH2+]CC2O1)[O]C(=O)C1(CCC1)C(=O)[O]3 [Example 23, cis-cyclobutane-1,1-dicarboxylato[(4S,5S)-4,5-bis(aminomethyl)-2-methyl-1,3-dioxolane]platinum(II)]
[1]
  IC50 (concentration required for 50% inhibition of growth): 1.75 µg/mL
[2]
  Solubility in water: 22.1 mg/mL
[3]; 6.2 mg/kg i.p.
  T/C (%): 108%
[3]; 12.5 mg/kg i.p.
  T/C (%): 115%
[3]; 25 mg/kg i.p.
  T/C (%): 150%
[3]; 50 mg/kg i.p.
  T/C (%): 201%
[3]; 100 mg/kg i.p.
  T/C (%): 254%
[4]
  BUN, 1st day: 24.8 mg/100 ml
  BUN, 4th day: 32.1 mg/100 ml
  BUN, 8th day: 42.0 mg/100 ml
  Creatinine, 1st day: 0.26 mg/100 ml
  Creatinine, 4th day: 0.30 mg/100 ml
  Creatinine, 8th day: 0.28 mg/100 ml
[4]; mean ± standard error
  Kidney wt (paired weight), 1st day: 492 ± 22.7 mg
  Kidney wt (paired weight), 4th day: 535 ± 16.3 mg
  Kidney wt (paired weight), 8th day: 527 ± 13.8 mg
[4]; vs. administration day
  body weight ratio (BWR), 1st day: 0.98
  body weight ratio (BWR), 4th day: 0.96
  body weight ratio (BWR), 8th day: 0.99

## N.N.[Cl][Pt][Cl] [cisplatin, cis-dichlorodiammineplatinum(II), reference compound]
[5]
  effectiveness on human cancers: effective on a variety of human cancers
[1]
  IC50 (concentration required for 50% inhibition of growth): 0.06 µg/mL
[3]; 1.5 mg/kg i.p.
  T/C (%): 142%
[3]; 3.1 mg/kg i.p.
  T/C (%): 167%
[3]; 6.2 mg/kg i.p.
  T/C (%): 82%
[3]; 12.5 mg/kg i.p.
  T/C (%): toxic
[3]; 25 mg/kg i.p.
  T/C (%): toxic

From patent US5395947A, “Platinum(II) complex and processes for preparing the same” (Sunkyong Industries, Ltd., priority 1991, dated 1995)
